Laboratory results published in patent US20080286235A1, “Antimicrobials and related methods” (priority 2006, published 2008).
In brackets after ≈: the same amount, converted by molar mass.

Tests used:
in vitro = conditions: mouse
[1] = system: C3H/10T1/2 mouse embryo fibroblasts; conditions: for Highest Non-Cytotoxic Concentration: mouse; for LC50 value (reduces the plating efficiency to 50% of control cells) / CC50: 10T1/2 cells; for CC50: read-out: LC50 value
ringworm = experiment: Cat ringworm treatment; format: in vivo, kittens; conditions: Solution A 1:16 topically three times daily for three days

SMILES	CC50 (in vitro)	Highest Non-Cytotoxic Concentration [1]	also measured
CC(=O)Nc1ccc(O)cc1 [Acetaminophen]	500 mg/L (≈ 3310 µM)	0.05 mg/mL	
CC(=O)Oc1ccccc1C(=O)O [Aspirin]		0.25 mg/mL	
OC1c2cc3ccc4cccc5ccc(c2C2OC2C1O)c3c45 (stereo not drawn) [BaP-anti-diol epoxide]			LC50 value (reduces the plating efficiency to 50% of control cells) [1]: 0.0755 mg/L; CC50 [1]: 0.25 µM
COC(=O)Nc1nc2cc(C(=O)c3ccc(F)cc3)ccc2[nH]1 [Flubendazole]	0.15 mg/L (≈ 0.479 µM)		
COC1=CC(=O)C[C@@H](C)[C@]12Oc1c(Cl)c(OC)cc(OC)c1C2=O [Griseofulvin]			outcome of ringworm treatment (ringworm): no success
CC(=O)ON(C(C)=O)c1ccc2c(c1)Cc1ccccc1-2 [N-acetoxy-acetyl aminofluorene]			LC50 value (reduces the plating efficiency to 50% of control cells) [1]: 3.99 mg/L; CC50 [1]: 15 µM
C[C@@H]1O[C@@H](O[C@H]2C[C@@H](O)[C@]3(CO)[C@H]4[C@H](O)C[C@]5(C)[C@@H](C6=CC(=O)OC6)CC[C@]5(O)[C@@H]4CC[C@]3(O)C2)[C@H](O)[C@H](O)[C@H]1O [Ouabain]	500 mg/L (≈ 855 µM)		
CCOc1ccc(NC(C)=O)cc1 [Phenacetin]	1000 mg/L (≈ 5580 µM)	0.18 mg/mL	
